{"source": "patent US20130172345A1", "about": "“1-ACYL-4-(PHENOXY, BENZYLOXY, OR PHENYLAMINO)-1,2,3,4-TETRAHYDROQUINOLINE DERIVATIVES” (KOWA COMPANY, LTD., priority 2007, published 2013)", "key": {"[1]": {"test_system": "HepG2 cells originating from human liver cancer", "assay": "EPO production in HepG2 cells (EPO ELISA of culture supernatant, 4% oxygen, 48 hrs)", "format": "cell-based", "conditions": "test compound 3 μM, oxygen 4%, non-stimulated state = 100%, read-out: EPO production amount, % of control (3 μM)", "outline": "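HepG2 cells in phenol red-free DMEM with 10% fetal serum treated with compound at final 3 μM or 10 μM, 48 h at 4% oxygen. Supernatant EPO by ELISA, expressed as % of untreated control.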"}, "[2]": {"test_system": "K562 cells, human proerythroblast cells", "assay": "Hemoglobin production in K562 cells (fluorescence of the porphyrin ring)", "format": "cell-based", "conditions": "144 h, test compound 6 μM, 3+3 days, non-stimulated state = 100%, read-out: production amount of hemoglobin, % of control (6 μM)", "outline": "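K562 cells at 1×10^5 cells/mL in RPMI-1640 with 10% FBS, exposed to compound 3 days, medium exchanged, then 3 more days at 37 °C, 5% CO2. Hemoglobin from 3×10^5 cells measured as porphyrin fluorescence after boiling 30 min in 2 M oxalic acid; expressed as % of untreated control.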"}}, "note": "Where a name gives a salt, the structure may show the parent alone.", "data": [{"compound": "CC(=O)N1c2ccccc2C(Nc2ccc(OC(C)C)cc2)CC1C", "note": "(stereo not drawn) [Compound 18, cis-1-acetyl-4-[(4-isopropoxyphenyl)amino]-2-methyl-1,2,3,4-tetrahydroquinoline.hydrochloride]", "values": [{"measurement": "activity at 3 µM", "setting": "[1]", "value": 178, "unit": "%"}, {"measurement": "activity at 6 µM", "setting": "[2]", "value": 374, "unit": "%"}]}, {"compound": "CC(=O)N1c2ccc(N3CCN(C(=O)C(C)C)CC3)cc2C(Nc2ccc(NS(C)(=O)=O)cc2)CC1C", "note": "(stereo not drawn) [Compound 111, 1-acetyl-6-[(4-isopropylcarbonyl)piperazino]-4-[(4-methanesulfonylaminophenyl)amino]-2-methyl-1,2,3,4-tetrahydroquinoline]", "values": [{"measurement": "activity at 3 µM", "setting": "[1]", "value": 126, "unit": "%"}, {"measurement": "activity at 6 µM", "setting": "[2]", "value": 46, "unit": "%"}]}, {"compound": "CC(=O)N1c2ccccc2[C@H](Nc2ccccc2F)C[C@@H]1C", "note": "(relative stereo) [Compound 22, cis-1-acetyl-4-[(2-fluorophenyl)amino]-2-methyl-1,2,3,4-tetrahydroquinoline]", "values": [{"measurement": "activity at 3 µM", "setting": "[1]", "value": 150, "unit": "%"}, {"measurement": "activity at 6 µM", "setting": "[2]", "value": 383, "unit": "%"}]}, {"compound": "CC(=O)N1c2ccc(Br)cc2C(Nc2ccc(Cl)cc2)CC1C", "note": "(stereo not drawn) [Compound 74, 1-acetyl-6-bromo-4-[(4-chlorophenyl)amino]-2-methyl-1,2,3,4-tetrahydroquinoline]", "values": [{"measurement": "activity at 3 µM", "setting": "[1]", "value": 398, "unit": "%"}, {"measurement": "activity at 6 µM", "setting": "[2]", "value": 375, "unit": "%"}]}, {"compound": "COc1ccc(NC2CC(C)N(C(C)=O)c3ccccc32)cc1", "note": "(stereo not drawn) [Compound 10, 1-acetyl-4-[(4-methoxyphenyl)amino]-2-methyl-1,2,3,4-tetrahydroquinoline]", "values": [{"measurement": "activity at 3 µM", "setting": "[1]", "value": 172, "unit": "%"}, {"measurement": "activity at 6 µM", "setting": "[2]", "value": 409, "unit": "%"}]}, {"compound": "CCOC(=O)c1ccc2c(c1)[C@H](Nc1ccc(Cl)cc1)C[C@H](C)N2C(C)=O", "note": "(relative stereo) [Compound 41, ethyl cis-1-acetyl-4-[(4-chlorophenyl)amino]-2-methyl-1,2,3,4-tetrahydroquinoline-6-carboxylate]", "values": [{"measurement": "activity at 3 µM", "setting": "[1]", "value": 119, "unit": "%"}, {"measurement": "activity at 6 µM", "setting": "[2]", "value": 529, "unit": "%"}]}, {"compound": "CC(=O)N1c2ccccc2[C@H](Oc2ccc(F)cc2)C[C@@H]1C", "note": "(relative stereo) [Compound 27, cis-1-acetyl-4-(4-fluorophenoxy)-2-methyl-1,2,3,4-tetrahydroquinoline]", "values": [{"measurement": "activity at 3 µM", "setting": "[1]", "value": 292, "unit": "%"}, {"measurement": "activity at 6 µM", "setting": "[2]", "value": 281, "unit": "%"}]}, {"compound": "CC(=O)N1c2ccc(C(N)=O)cc2[C@H](Oc2ccc(F)cc2)C[C@@H]1C", "note": "(relative stereo) [Compound 54, cis-1-acetyl-4-(4-fluorophenoxy)-2-methyl-1,2,3,4-tetrahydroquinoline-6-carboxamide]", "values": [{"measurement": "activity at 3 µM", "setting": "[1]", "value": 148, "unit": "%"}, {"measurement": "activity at 6 µM", "setting": "[2]", "value": 186, "unit": "%"}]}, {"compound": "CC(=O)N1c2ccccc2C(Nc2ccc(C#N)cc2)CC1C", "note": "(stereo not drawn) [Compound 9, 1-acetyl-4-[(4-cyanophenyl)amino]-2-methyl-1,2,3,4-tetrahydroquinoline]", "values": [{"measurement": "activity at 3 µM", "setting": "[1]", "value": 405, "unit": "%"}, {"measurement": "activity at 6 µM", "setting": "[2]", "value": 406, "unit": "%"}]}]}
